# Target: T1, GST-YTHDF3 (Homo sapiens, UniProt Q7Z739)
# T1 construct: made in house
# T1 sequence (Q7Z739 1-585): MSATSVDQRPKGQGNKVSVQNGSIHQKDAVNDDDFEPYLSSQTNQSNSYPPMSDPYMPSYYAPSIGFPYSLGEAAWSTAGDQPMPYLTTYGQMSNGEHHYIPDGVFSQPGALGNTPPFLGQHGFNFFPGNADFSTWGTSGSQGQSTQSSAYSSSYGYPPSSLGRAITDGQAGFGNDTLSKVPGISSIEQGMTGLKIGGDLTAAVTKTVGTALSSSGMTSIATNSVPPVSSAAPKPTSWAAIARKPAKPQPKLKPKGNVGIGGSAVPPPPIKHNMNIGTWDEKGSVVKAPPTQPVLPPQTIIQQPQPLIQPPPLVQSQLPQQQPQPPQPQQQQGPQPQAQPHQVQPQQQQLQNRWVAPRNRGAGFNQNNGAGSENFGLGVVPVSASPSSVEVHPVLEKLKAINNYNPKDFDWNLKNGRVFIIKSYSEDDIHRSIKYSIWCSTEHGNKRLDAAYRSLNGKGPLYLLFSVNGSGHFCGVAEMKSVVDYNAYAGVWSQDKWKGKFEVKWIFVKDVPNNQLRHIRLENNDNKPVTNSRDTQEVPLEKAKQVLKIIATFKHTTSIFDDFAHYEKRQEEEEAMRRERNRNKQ
# Test: HTRF-based binding assay, DF3
# Conditions: HTRF, 100 µM compound, normalized
# Experimental: (§1) The HTRF-based assay was employed to evaluate the selectivity of the series against other DF proteins.
# (§2) A dose–response experiment on DF1 and DF3 was conducted for compounds 17, 18, 23, and 27 (Figure S5). Compounds 17, 18, and 27 are active on three DF proteins. […] In contrast, compound 23 is selective for DF2, with residual signals (at the highest employed concentration of 62.5 μM) of 51 and 87% for DF1 and DF3, respectively.
# (§3) GST-YTHDC1, GST-YTHDF1, GST-YTHDF2, and GST-YTHDF3 were purified as previously reported. The HTRF assay was assembled as detailed in ref with the only difference being that the starting concentration of the dose–response experiments used for the IC50 determination was variated dependently from the tested compound. The same protocol was applied to the four proteins. The competitive inhibition data of GST-YTHDF1 (single dose experiment at 100 μM compound concentration and dose–response curves), GST-YTHDF3 (single dose experiment at 100 μM compound concentration and dose–response curves), and GST-YTHDF2 (single dose experiment at 100 μM compound concentration) were normalized as described in ref to mitigate interference. The signal was measured as described in ref .
row,Structure (SMILES),"Single-dose residual signal at 100 µM, DF3"
1,O=c1[nH]c(=S)[nH]c2sccc12 [Compound 14],23%
2,COC(=O)c1ccc(-c2csc3[nH]c(=S)[nH]c(=O)c23)cc1 [Compound 17],7%
3,O=C(O)c1ccc(-c2csc3[nH]c(=S)[nH]c(=O)c23)cc1 [Compound 18],19%
4,O=c1[nH]c(=S)[nH]c2scc(-c3ccc(O)cc3)c12 [Compound 19],13%
5,CC(=O)c1sc2[nH]c(=S)[nH]c(=O)c2c1C [Compound 20],12%
6,CCOC(=O)c1sc2[nH]c(=S)[nH]c(=O)c2c1C [Compound 21],10%

# Same assay, conditions: dose-response
row,Structure (SMILES),IC50
1,COC(=O)c1ccc(-c2csc3[nH]c(=S)[nH]c(=O)c23)cc1 [Compound 17],21 µM
2,O=C(O)c1ccc(-c2csc3[nH]c(=S)[nH]c(=O)c23)cc1 [Compound 18],53 µM

# Target: T2, GST-YTHDF1 (Homo sapiens, UniProt Q9BYJ9)
# T2 construct: made in house
# T2 sequence (Q9BYJ9 1-559): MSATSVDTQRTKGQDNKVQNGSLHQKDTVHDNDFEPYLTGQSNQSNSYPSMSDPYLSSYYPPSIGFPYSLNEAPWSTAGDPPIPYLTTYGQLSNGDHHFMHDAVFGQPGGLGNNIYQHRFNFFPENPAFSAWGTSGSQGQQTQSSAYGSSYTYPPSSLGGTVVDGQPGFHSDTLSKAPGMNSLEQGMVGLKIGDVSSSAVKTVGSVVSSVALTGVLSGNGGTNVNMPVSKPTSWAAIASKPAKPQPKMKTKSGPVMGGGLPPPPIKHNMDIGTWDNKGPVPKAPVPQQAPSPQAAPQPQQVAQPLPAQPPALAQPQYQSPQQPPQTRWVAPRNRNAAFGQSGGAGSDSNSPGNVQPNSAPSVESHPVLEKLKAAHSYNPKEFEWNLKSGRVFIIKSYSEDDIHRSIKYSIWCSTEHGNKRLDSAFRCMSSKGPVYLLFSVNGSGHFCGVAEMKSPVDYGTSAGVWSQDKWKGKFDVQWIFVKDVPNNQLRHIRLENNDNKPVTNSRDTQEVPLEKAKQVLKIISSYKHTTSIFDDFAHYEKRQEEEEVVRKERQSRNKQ
# Test: HTRF-based binding assay, DF1
# Conditions: HTRF, 100 µM compound, normalized
# Experimental: as §1, §2, §3
row,Structure (SMILES),"Single-dose residual signal at 100 µM, DF1"
1,O=c1[nH]c(=S)[nH]c2sccc12 [Compound 14],15%
2,COC(=O)c1ccc(-c2csc3[nH]c(=S)[nH]c(=O)c23)cc1 [Compound 17],7%
3,O=C(O)c1ccc(-c2csc3[nH]c(=S)[nH]c(=O)c23)cc1 [Compound 18],3%
4,O=c1[nH]c(=S)[nH]c2scc(-c3ccc(O)cc3)c12 [Compound 19],8%
5,CC(=O)c1sc2[nH]c(=S)[nH]c(=O)c2c1C [Compound 20],8%
6,CCOC(=O)c1sc2[nH]c(=S)[nH]c(=O)c2c1C [Compound 21],12%

# Same assay, conditions: dose-response
row,Structure (SMILES),IC50
1,COC(=O)c1ccc(-c2csc3[nH]c(=S)[nH]c(=O)c23)cc1 [Compound 17],10 µM
2,O=C(O)c1ccc(-c2csc3[nH]c(=S)[nH]c(=O)c23)cc1 [Compound 18],11 µM

# Target: T3, GST-YTHDF2 (Homo sapiens, UniProt Q9Y5A9)
# T3 construct: made in house
# T3 sequence (Q9Y5A9 1-579): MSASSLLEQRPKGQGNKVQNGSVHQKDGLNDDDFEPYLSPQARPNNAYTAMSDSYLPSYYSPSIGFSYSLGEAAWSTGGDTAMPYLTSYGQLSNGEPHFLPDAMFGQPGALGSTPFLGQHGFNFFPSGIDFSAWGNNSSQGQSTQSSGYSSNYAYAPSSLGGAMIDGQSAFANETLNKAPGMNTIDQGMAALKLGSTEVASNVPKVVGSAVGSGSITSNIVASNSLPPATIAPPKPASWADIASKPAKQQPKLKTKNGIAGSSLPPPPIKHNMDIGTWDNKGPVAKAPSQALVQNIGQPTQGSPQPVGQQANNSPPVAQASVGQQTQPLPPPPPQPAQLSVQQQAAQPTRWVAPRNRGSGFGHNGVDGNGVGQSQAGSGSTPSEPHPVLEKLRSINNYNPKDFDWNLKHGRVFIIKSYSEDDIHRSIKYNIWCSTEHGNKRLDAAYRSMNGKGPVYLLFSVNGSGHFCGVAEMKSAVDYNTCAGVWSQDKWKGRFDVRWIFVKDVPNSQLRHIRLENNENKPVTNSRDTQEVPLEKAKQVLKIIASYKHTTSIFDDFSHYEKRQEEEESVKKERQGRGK
# Test: HTRF-based binding assay, competition with m6A-oligoRNA, DF2
# Conditions: HTRF DF2
row,Structure (SMILES),Improvement of HTRF IC50 compared to fragment 14
1,COC(=O)c1ccc(-c2csc3[nH]c(=S)[nH]c(=O)c23)cc1 [Compound 17],3 fold
2,O=C(O)c1ccc(-c2csc3[nH]c(=S)[nH]c(=O)c23)cc1 [Compound 18],3 fold

# Same assay, conditions: HTRF, 100 µM compound, normalized
row,Structure (SMILES),"Single-dose residual signal at 100 µM, DF2"
1,O=c1[nH]c(=S)[nH]c2sccc12 [Compound 14],8%
2,COC(=O)c1ccc(-c2csc3[nH]c(=S)[nH]c(=O)c23)cc1 [Compound 17],4%
3,O=C(O)c1ccc(-c2csc3[nH]c(=S)[nH]c(=O)c23)cc1 [Compound 18],4%
4,O=c1[nH]c(=S)[nH]c2scc(-c3ccc(O)cc3)c12 [Compound 19],5%
5,CC(=O)c1sc2[nH]c(=S)[nH]c(=O)c2c1C [Compound 20],3%
6,CCOC(=O)c1sc2[nH]c(=S)[nH]c(=O)c2c1C [Compound 21],5%

# Same assay, conditions: LE = -RT ln IC50/HAC from HTRF IC50
row,Structure (SMILES),"LE (ligand efficiency, DF2)"
1,O=c1[nH]c(=S)[nH]c2sccc12 [Compound 14],0.60 kcal/(mol HAC)
2,COC(=O)c1ccc(-c2csc3[nH]c(=S)[nH]c(=O)c23)cc1 [Compound 17],0.35 kcal/(mol HAC)
3,O=C(O)c1ccc(-c2csc3[nH]c(=S)[nH]c(=O)c23)cc1 [Compound 18],0.36 kcal/(mol HAC)
4,O=c1[nH]c(=S)[nH]c2scc(-c3ccc(O)cc3)c12 [Compound 19],0.34 kcal/(mol HAC)
5,CC(=O)c1sc2[nH]c(=S)[nH]c(=O)c2c1C [Compound 20],0.45 kcal/(mol HAC)
6,CCOC(=O)c1sc2[nH]c(=S)[nH]c(=O)c2c1C [Compound 21],0.42 kcal/(mol HAC)

# Same assay, conditions: dose-response, competitor m6A-oligoRNA; read-out: DF2 IC50 (HTRF assay)
row,Structure (SMILES),IC50
1,O=c1[nH]c(=S)[nH]c2sccc12 [Compound 14],18 µM
2,COC(=O)c1ccc(-c2csc3[nH]c(=S)[nH]c(=O)c23)cc1 [Compound 17],4.7 µM
3,O=C(O)c1ccc(-c2csc3[nH]c(=S)[nH]c(=O)c23)cc1 [Compound 18],5.4 µM
4,O=c1[nH]c(=S)[nH]c2scc(-c3ccc(O)cc3)c12 [Compound 19],32 µM
5,CC(=O)c1sc2[nH]c(=S)[nH]c(=O)c2c1C [Compound 20],13 µM
6,CCOC(=O)c1sc2[nH]c(=S)[nH]c(=O)c2c1C [Compound 21],6.3 µM

# Target: YTHDC1 (Homo sapiens, UniProt Q96MU7)
# Test: DNA-fluorescence polarization (FP) competition assay, DC1
# Assay type: binding
# Conditions: not given
# Experimental: The binding affinity for DC1 could not be evaluated by HTRF because of interference of the compounds with the assay, which has a smaller assay window when performed with DC1 compared to the DF proteins. Thus, the FP assay was used to evaluate binding to DC1 and DC2.
# For fluorescence polarization (FP) experiments, a 5′-fluorescein-labeled m^6A-DNA probe (5′-FAM-[…](m6A)-CTAAGCT-3′) was synthesized by Microsynth AG.
# The final concentration of the fluorescein-labeled DNA was kept constant at 3 nM. For YTHDC2 measurements, the protein concentration was set to 25 nM, while for YTHDF2 measurements, it was set to 10 nM, and for YTHDC1, it was set at 15 nM. The compound concentration was serially diluted to obtain the dose–response curve. The competition experiments were conducted in a final volume of 20 μL in a buffer containing 20 mM Tris–HCl (pH 7.4), 150 mM NaCl, and 0.01% bovine serum albumin (BSA), using a 384-well black flat-bottomed microplate (Corning 3575).
# After incubating the mixture for 1 h, the anisotropy values were measured using a Tecan SPARK plate reader with 485/20 nm excitation and 535/25 nm emission polarization filters, suitable for fluorescein, at 25 °C. To obtain the equilibrium dissociation constant (K d), the IC50 values were first derived by fitting a dose–response curve to the data using nonlinear regression analysis in GraphPad Prism. These IC50 values were then converted to K d by using the Cheng–Prusoff equation: Kd=IC50/1+[L]/Kdprobe
# IC50 is the observed value from FP assay, [L] is the probe concentration used, and K d ^probe is the binding affinity of probe for the target.
row,Structure (SMILES),Kd
1,O=c1[nH]c(=S)[nH]c2sccc12 [Compound 14],32 µM
2,COC(=O)c1ccc(-c2csc3[nH]c(=S)[nH]c(=O)c23)cc1 [Compound 17],5 µM
3,O=C(O)c1ccc(-c2csc3[nH]c(=S)[nH]c(=O)c23)cc1 [Compound 18],6.9 µM
4,O=c1[nH]c(=S)[nH]c2scc(-c3ccc(O)cc3)c12 [Compound 19],27 µM
5,CC(=O)c1sc2[nH]c(=S)[nH]c(=O)c2c1C [Compound 20],47 µM
6,CCOC(=O)c1sc2[nH]c(=S)[nH]c(=O)c2c1C [Compound 21],36 µM

# Same assay, conditions: FP Kd values
row,Structure (SMILES),Selectivity DF2 over DC1 (Kd ratio DC1/DF2)
1,O=c1[nH]c(=S)[nH]c2sccc12 [Compound 14],~8 fold
